# Results from patent US8859541B2, “6-alkynylpyridines” (Boehringer Ingelheim International GmbH, priority 2012, dated 2014).
# Molecular target: T1, XIAP BIR3 (Homo sapiens, UniProt P98170)
# T1 construct: covering amino acids 241 to 356; XIAP BIR3; made in house; host or cells: E. coli
# Test: XIAP BIR3 binding assay (DELFIA), displacement of SMAC peptide
# Conditions: GST-fusion BIR3 domain (aa 241 to 356) 10 nM, SMAC peptide 10 nM; activity of the (S)-isomers
# Experimental: Biological Methods XIAP BIR3 and cIAP1 BIR3 Binding Assays (DELFIA)
# Peptide […]-Lys(Biotin), representing the N-terminus of mature human SMAC (SMAC peptide), was used as interaction partner in the protein-peptide interaction assay.
# BIR3 domains (10 nM) were incubated with SMAC peptide (10 nM) in Assay Buffer (50 mM Tris, 120 mM NaCl, 0.1% BSA, 1 mM DTT, 0.05% TritonX100) for one hour at room temperature in the presence of inhibitiory compounds. The assay mixture was transferred to a strepatvidin coated plate and incubated for one hour at room temperature to allow binding of the biotinylated peptide and associated BIR3 domains to the plate. After several washing steps Eu labeled anti-GST antibody (e.g. Perkin Elmer DELFIA Eu-N1-antiGST AD0250) was added to detect BIR3 domain-SMAC peptide interactions according to Perkin Elmer's instructions. […] Time resolved Europium fluoresecence was measured in a Wallac Victor using Standard assay settings.
# DELFIA assay results were plotted against compound concentrations and Software GraphPad Prizm was used to calculate half maximal inhibitory concentrations (IC50 values).
# T1 sequence (P98170 241-356): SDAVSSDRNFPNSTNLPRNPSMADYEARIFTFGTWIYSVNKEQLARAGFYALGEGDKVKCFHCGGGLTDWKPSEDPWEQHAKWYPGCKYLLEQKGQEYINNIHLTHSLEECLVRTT
row,IC50 [µM],Compound
1,0.243,"CC(N)C(=O)Nc1ccc(-c2cncc(F)c2)c(C#Cc2ccccc2)n1 (stereo not drawn) [Example 106, 2-amino-N-[5-(5-fluoropyridin-3-yl)-6-(2-phenylethynyl)pyridin-2-yl]propanamide]"
2,1.01,"CC(N)C(=O)Nc1ccc(-c2ccccc2)c(C#Cc2ccccc2)n1 (stereo not drawn) [Example 107, 2-amino-N-[5-phenyl-6-(2-phenylethynyl)pyridin-2-yl]-propanamide]"
3,0.65,"CC(N)C(=O)Nc1ccc(-c2ccccc2C#N)c(C#Cc2ccccc2)n1 (stereo not drawn) [Example 109, 2-amino-N-[5-(2-cyanophenyl)-6-(2-phenylethynyl)pyridin-2-yl]-propanamide]"
4,3.19,"CC(N)C(=O)Nc1ccc(-c2ccccc2C(F)(F)F)c(C#Cc2ccccc2)n1 (stereo not drawn) [Example 110, 2-amino-N-[6-(2-phenylethynyl)-5-[2-(trifluoromethyl)phenyl]-pyridin-2-yl]propanamide]"
5,1.55,"CC(N)C(=O)Nc1ccc(-c2cc(F)cc(F)c2)c(C#Cc2ccccc2)n1 (stereo not drawn) [Example 111, 2-amino-N-[5-(3,5-difluorophenyl)-6-(2-phenyl-ethynyl)pyridin-2-yl]propanamide]"
6,1.07,"CC(N)C(=O)Nc1ccc(-c2ccc(-c3ccc(F)cc3)nc2)c(C#Cc2ccccc2)n1 (stereo not drawn) [Example 112, 2-amino-N-[5-[6-(4-fluorophenyl)pyridin-3-yl]-6-(2-phenylethynyl)pyridin-2-yl]-propanamide]"
7,1.63,"CC(N)C(=O)Nc1ccc(-c2cccc(F)c2)c(C#Cc2ccccc2)n1 (stereo not drawn) [Example 114, 2-amino-N-[5-(3-fluorophenyl)-6-(2-phenylethynyl)pyridin-2-yl]-propanamide]"
8,2.04,"CC(N)C(=O)Nc1ccc(-c2cc(F)cc(C(F)(F)F)c2)c(C#Cc2ccccc2)n1 (stereo not drawn) [Example 115, 2-amino-N-[5-[3-fluoro-5-(trifluoromethyl)phenyl]-6-(2-phenylethynyl)pyridin-2-yl]-propanamide]"
9,1.77,"CNC(C)C(=O)Nc1ccc(-c2ccccc2Cl)c(C#Cc2ccccc2)n1 (stereo not drawn) [Example 116, N-[5-(2-chlorophenyl)-6-(2-phenylethynyl)pyridin-2-yl]-2-(methylamino)propanamide]"
10,0.406,"CNC(C)C(=O)Nc1ccc(-c2cc(C#N)ccc2Cl)c(C#Cc2ccccc2)n1 (stereo not drawn) [Example 117, N-[5-(2-chloro-5-cyanophenyl)-6-(2-phenylethynyl)pyridin-2-yl]-2-(methylamino)propanamide]"
11,0.327,"CNC(C)C(=O)Nc1ccc(Cc2ccccc2)c(C#Cc2ccccc2)n1 (stereo not drawn) [Example 119, N-[5-benzyl-6-(2-phenylethynyl)pyridin-2-yl]-2-(methylamino)-propan-amide]"
12,0.185,"CNC(C)C(=O)Nc1ccc(-c2cncc(C(=O)O)c2)c(C#Cc2ccccc2)n1 (stereo not drawn) [Example 120, 5-[6-[[2-(methylamino)-propanoyl]amino]-2-(2-phenyl-ethynyl)pyridin-3-yl]pyridine-3-carboxylic acid]"
13,2.84,"CCc1ccccc1-c1ccc(NC(=O)C(C)NC)nc1C#Cc1ccccc1 (stereo not drawn) [Example 124, N-[5-(2-ethylphenyl)-6-(2-phenyl-ethynyl)pyridin-2-yl]-2-(methyl-amino)propanamide]"
14,0.101,"CNC(C)C(=O)Nc1ccc(-c2cncc(N)c2)c(C#Cc2ccccc2)n1 (stereo not drawn) [Example 128, N-[5-(5-aminopyridin-3-yl)-6-(2-phenylethynyl)pyridin-2-yl]-2-(methylamino)propanamide]"
15,0.305,"CNC(C)C(=O)Nc1ccc(-c2cc(C(=O)OC)ccc2OC)c(C#Cc2ccccc2)n1 (stereo not drawn) [Example 131, methyl 4-methoxy-3-[6-[[2-(methylamino)propanoyl]amino]-2-(2-phenylethynyl)pyridin-3-yl]-benzoate]"
16,0.142,"CNC(C)C(=O)Nc1ccc(-c2cc(C(=O)OC)cc([N+](=O)[O-])c2)c(C#Cc2ccccc2)n1 (stereo not drawn) [Example 133, methyl 3-[6-[[2-(methylamino)-propanoyl]amino]-2-(2-phenyl-ethynyl)pyridin-3-yl]-5-nitrobenzoate]"
17,0.581,"CNC(C)C(=O)Nc1ccc(-c2ccc(C)c(C(=O)OC)c2)c(C#Cc2ccccc2)n1 (stereo not drawn) [Example 134, methyl 2-methyl-5-[6-[[2-(methylamino)propanoyl]amino]-2-(2-phenylethynyl)pyridin-3-yl]-benzoate]"
18,0.49,"CC(N)C(=O)Nc1ccc(-c2cccc3cccnc23)c(C#Cc2ccccc2)n1 (stereo not drawn) [Example 135, 2-amino-N-[6-(2-phenylethynyl)-5-quinolin-8-ylpyridin-2-yl]-propanamide]"

row,IC50 [µM],Compound
1,1.04,"CNC(C)C(=O)Nc1ccc(-c2sc(-c3ccccc3)nc2C)c(C#Cc2ccccc2)n1 (stereo not drawn) [Example 136, 2-(methylamino)-N-[5-(4-methyl-2-phenyl-1,3-thiazol-5-yl)-6-(2-phenylethynyl)pyridin-2-yl]-propanamide]"
2,0.155,"CNC(C)C(=O)Nc1ccc(-c2cccc3[nH]ncc23)c(C#Cc2ccccc2)n1 (stereo not drawn) [Example 137, N-[5-(1H-indazol-4-yl)-6-(2-phenylethynyl)pyridin-2-yl]-2-(methylamino)propanamide]"
3,1.41,"CNC(C)C(=O)Nc1ccc(-c2cccc(F)c2F)c(C#Cc2ccccc2)n1 (stereo not drawn) [Example 139, N-[5-(2,3-difluorophenyl)-6-(2-phenylethynyl)pyridin-2-yl]-2-(methylamino)propanamide]"
4,1.99,"CNC(C)C(=O)Nc1ccc(-c2cccc(C(F)(F)F)c2OC)c(C#Cc2ccccc2)n1 (stereo not drawn) [Example 140, N-[5-[2-methoxy-3-(trifluoromethyl)phenyl]-6-(2-phenylethynyl)pyridin-2-yl]-2-(methylamino)propanamide]"
5,0.558,CNC(C)C(=O)Nc1ccc(-c2cccc(C(=O)O)c2OC)c(C#Cc2ccccc2)n1 (stereo not drawn) [Example 141]
6,0.503,"CNC(C)C(=O)Nc1ccc(-c2cccc3c2ccn3C)c(C#Cc2ccccc2)n1 (stereo not drawn) [Example 142, 2-(methylamino)-N-[5-(1-methylindol-4-yl)-6-(2-phenyl-ethynyl)pyridin-2-yl]propanamide]"
7,0.388,"CNC(C)C(=O)Nc1ccc(-c2cccc3ncccc23)c(C#Cc2ccc(C)cc2)n1 (stereo not drawn) [Example 143, 2-(methylamino)-N-[6-[2-(4-methylphenyl)ethynyl]-5-quinolin-5-ylpyridin-2-yl]propan-amide]"
8,0.4,"CNC(C)C(=O)Nc1ccc(-c2cccc3cnccc23)c(C#Cc2ccc(C)cc2)n1 (stereo not drawn) [Example 144, N-[5-isoquinolin-5-yl-6-[2-(4-methylphenyl)ethynyl]pyridin-2-yl]-2-(methylamino)propanamide]"
9,0.257,"CNC(C)C(=O)Nc1ccc(-c2ccc(F)nc2)c(C#Cc2ccccc2)n1 (stereo not drawn) [Example 146, N-[5-(6-fluoropyridin-3-yl)-6-(2-phenylethynyl)pyridin-2-yl]-2-(methylamino)propanamide]"
10,0.416,"CNC(C)C(=O)Nc1ccc(-c2cnccc2C#N)c(C#Cc2ccc(C)cc2)n1 (stereo not drawn) [Example 148, N-[5-(4-cyanopyridin-3-yl)-6-[2-(4-methylphenyl)ethynyl]pyridin-2-yl]-2-(methylamino)propan-amide]"
11,2.45,"CNC(C)C(=O)Nc1ccc(-c2cccc(-c3ccccc3)c2)c(C#Cc2ccccc2)n1 (stereo not drawn) [Example 150, 2-(methylamino)-N-[6-(2-phenyl-ethynyl)-5-(3-phenylphenyl)-pyridin-2-yl]propanamide]"
12,0.326,"CNC(C)C(=O)Nc1ccc(-c2ccc(C(=O)OC)nc2)c(C#Cc2cc(F)cc(F)c2)n1 (stereo not drawn) [Example 151, methyl 5-[2-[2-(3,5-difluorophenyl)ethynyl]-6-[[2-(methylamino)propanoyl]amino]-pyridin-3-yl]pyridine-2-carboxylate]"
13,0.431,"CNC(C)C(=O)Nc1ccc(-c2ccnc3ccccc23)c(C#Cc2cc(F)cc(F)c2)n1 (stereo not drawn) [Example 152, N-[6-[2-(3,5-difluorophenyl)-ethynyl]-5-quinolin-4-ylpyridin-2-yl]-2-(methylamino)propanamide]"
14,1.24,"CNC(C)C(=O)Nc1ccc(-c2cnccc2OC)c(C#Cc2ccc3cnccc3c2)n1 (stereo not drawn) [Example 153, N-[6-(2-isoquinolin-6-ylethynyl)-5-(4-methoxypyridin-3-yl)-pyridin-2-yl]-2-(methylamino)-propanamide]"
15,0.569,"CNC(C)C(=O)Nc1ccc(-c2cnccc2OC)c(C#Cc2ccc3ccccc3c2)n1 (stereo not drawn) [Example 154, N-[5-(4-methoxypyridin-3-yl)-6-(2-naphthalen-2-ylethynyl)-pyridin-2-yl]-2-(methylamino)-propanamide]"
16,0.284,"CNC(C)C(=O)Nc1ccc(-c2cnc(N3CCCC3)nc2)c(C#Cc2ccc3ccccc3c2)n1 (stereo not drawn) [Example 155, 2-(methylamino)-N-[6-(2-naphthalen-2-ylethynyl)-5-(2-pyrrolidin-1-ylpyrimidin-5-yl)-pyridin-2-yl]propanamide]"
17,3.18,"CNC(C)C(=O)Nc1ccc(-c2c(-c3ccccc3)noc2C)c(C#Cc2ccc3ccccc3c2)n1 (stereo not drawn) [Example 156, 2-(methylamino)-N-[5-(5-methyl-3-phenyl-1,2-oxazol-4-yl)-6-(2-naphthalen-2-ylethynyl)pyridin-2-yl]propanamide]"
18,0.276,"CNc1ncc(-c2ccc(NC(=O)C(C)NC)nc2C#Cc2ccc3ccccc3c2)cn1 (stereo not drawn) [Example 157, 2-(methylamino)-N-[5-[2-(methylamino)pyrimidin-5-yl]-6-(2-naphthalen-2-ylethynyl)-pyridin-2-yl]propanamide]"
